The values below come from patent US20040028631A1, “Cosmetic formulations” (priority 2000, published 2004).

A short description of data set [1]: Optimum concentration (substance data tables; stabilizing effect). From the text:
With respect to the stabilizing effect of optically active DIP it is most important that the substance is present in the form of potassium salt.

A further data set has as its system model proteins. The experiment in a line: Protection of model proteins. The settings on record: protecting model proteins. It counts as biochemical. The protocol: Application related examinations were conducted with di-glycerol phosphate (DGP) aimed at protecting model proteins. As a penetration intensifier di-glycerol phosphate moreover ensures that these macro-molecules are also transported through several skin layers until they have reached their target destination.

A further data set in a line: Solubility in water. The data set is classed as physicochemical.
A short description of data set [2]: Chemical, physical, pH and light stability. The data set is classed as physicochemical.
The nature of a further data set: Water binding capability. The data set is classed as physicochemical. An excerpt: Moreover, the compound is thus of interest for the regulation and balancing of the skin's moisture characteristics. This is at least of additional advantage when the compound is used as a cosmetic agent.
Data set [3] is described as follows: Biocompatibility / allergenic potential.
The test system of another data set is proteins. Briefly: Protection against thermally induced denaturation of proteins. The data set is classed as biochemical. From the text: Little is known at the present time about the effect of DIP in general. This mainly due to the fact that only very little of this compound is available.

Where two headings read alike, the source gives them in different places.

In the case of `O=P(O)(OCC(O)CO)OCC(O)CO` (stereo not shown) [DGP, di-glycerol phosphate], in data set [1], the Optimum concentration lay in the range of 100 to 200 mM. Besides, the “protective potential compared with glycerine” value in the data set on model proteins was “by far better protective potential”. The solubility in water entry in the data set “Solubility in water” is “Excellent”. The “chemical and physical stability” value in data set [2] is listed as “High”. Further, the “capability of binding water” value in “Water binding capability” is reported as “highly capable of binding water”. The biocompatibility entry in data set [3] is on record as “High”.
`O=P(O)(O[C@@H]1[C@H](O)[C@H](O)[C@@H](O)[C@H](O)[C@H]1O)O[C@@H]1[C@@H](O)[C@H](O)[C@@H](O)[C@H](O)[C@@H]1O` [DIP, di-myo-inositol phosphate]: the Optimum concentration in data set [1] was in the range of 250 to 400 mM. Further, the “protective effect in respect of the thermally induced denaturation of proteins” value in the data set on proteins (first experiments) is “excellent”. Also, the “protective effect in comparison with other compatible solutes” value in the data set with proteins (thermally induced denaturation of proteins) is “far and decidedly better”. Moreover, the solubility in water entry in the data set “Solubility in water” is “Excellent”. In addition, the “chemical and physical stability” value in data set [2] was “High”; in data set [2] (listed as di-myo-inositol phosphate) it was “great stability”. For the same compound, the “capability of binding water” value in the data set “Water binding capability” is “highly capable of binding water”.
